[invAb] = inverted abasic unit; m = 2'-O-methyl; r = 2'-OH (RNA); f = 2'-fluoro
Tests used:
STAT6 mRNA [1] = assay: STAT6 siNA screen and dose response in human A549 cells, STAT6 mRNA by quantitative RT-PCR (Taqman); assay type: cell-based; conditions: human A549 cells, 10 nM siNA, 24 hrs, normalized to GAPDH and non-targeting control, mean ± S.D., n = 3
Protocol: A549 (human; ATCC cat# CCL-185): Cells were cultured at 37° C. in the presence of 5% CO2 and grown in Ham's F12K medium with 2 mM L-glutamine adjusted to contain 1.5 g/L sodium bicarbonate and supplemented with fetal bovine serum at a final concentration of 10%, 100 μg/mL of streptomycin, and 100 U/mL penicillin.
(§1) Cells were plated in all wells of a tissue-culture treated, 96-well plate at a final count of 5000 cells/well in […], of the appropriate culture media. The cells were cultured for 24 hours after plating at 37° C. in the presence of 5% CO2.
(§2) After 24 hours, complexes containing siNA and RNAiMax were created as follows: A solution of RNAiMax diluted 33-fold in OPTI-MEM was prepared. In parallel, solutions of the siNAs for testing were prepared to a final concentration of 120 nM in OPTI-MEM. After incubation of RNAiMax/OPTI-MEM solution at room temperature for 5 min, an equal volume of the siNA solution and the RNAiMax solution were added together for each of the siNAs.
(§3) This solution was incubated at room temperature for 20 minutes. After incubation, 20 uL of the solution was added to each of the relevant wells. The final concentration of siNA in each well was 10 nM and the final volume of RNAiMax in each well was 0.3u1.
(§4) The time of incubation with the RNAiMax-siNA complexes was 24 hours and there was no change in media between transfection and harvesting, unless otherwise indicated.
(§5) RNA was extracted from a 96-well plate using the TaqMan® Gene Expression Cells-to-CT™ Kit (Cat#4399002) with a modified protocol. Briefly, a 60 uL (1 plate) or 110 uL (2 plates) of the Lysis Solution with DNase I was dispensed into each well of the Lysis Buffer Plate (twin.tec full skirt plate). The lysis buffer and stop plates were stored at 4° C. until the cells were washed.
(§6) The plate was spun at 1100 rpm for 5 minutes. The culture medium was aspirated and discarded from the wells of the culture plate. The lysis was performed automatically using a BioMek FX instrument and method. After the Biomek method was completed, the lysis plate was incubated for 2 min. at room temperature. The lysis plate can be stored for 2 hours at 4° C., or at −20° C. or −80° C. for two months.
(§7) Each well of the reverse transcription plate required 10 uL of 2× reverse transcriptase Buffer, luL of 20× reverse transcription enzyme and 2 uL of nuclease-free water. The reverse transcription master mix was prepared by mixing 2× reverse transcription buffer, 20× reverse transcription enzyme mix, and nuclease-free water. 13 uL of the reverse transcription master mix was dispensed into each well of the reverse transcription plate (semi-skirted). A separate reverse transcription plate was prepared for each cell plate. The plate was loaded onto a Biomek NX or Biomek FX Dual-96 and the Biomek method was run. The program is programmed to automatically added 7 uL of lysate from the cell lysis procedure described above into each well of the reverse transcription plate. The plate is sealed and spun on a centrifuge (1000 rpm for 30 seconds) to settle the contents to the bottom of the reverse transcription plate. The plate is placed in a thermocycler at 37° C. for 60 min, 95° C. for 5 min, and 4° C. until the plate is removed from the thermocycler. Upon removal, if not used immediately, the plate was frozen at −20° C.
(§8) A series of probes and primers were used to detect the various mRNA transcripts of the genes of 13-Actin (human cell line only), and of STATE and GAPDH in mouse and human cell lines. All Taqman probes and primers for the experiments here-in described were supplied as pre-validated sets by Applied Biosystems, Inc. (see Table 2).
The assays were performed on an ABI 7900 instrument, according to the manufacturer's instructions. A TaqMan Gene Expression Master Mix (provided in the Cells-to-CTT™, Applied Biosystems, Cat #4399002) was used. The PCR reactions were carried out at 50° C. for 2 min, 95° C. for 20 min followed by 40 cycles at 95° C. for 15 secs and 60° C. for 1 min. […]

STAT6 mRNA [2] = assay: STAT6 siNA screen in mouse NIH 3T3 cells, STAT6 mRNA by quantitative RT-PCR (Taqman); assay type: cell-based; conditions: mouse NIH3T3 cells, 10 nM siNA, 24 hrs, normalized to GAPDH and non-targeting control, n = 2
Protocol: NIH 3T3 (mouse; ATCC cat# CRL-1658): Cells were cultured at 37° C. in the presence of 5% CO2 and grown in Dulbecco's modified Eagle's medium (DMEM) with 4 mM L-glutamine adjusted to contain 1.5 g/L sodium bicarbonate and 4.5 g/L glucose and supplemented with fetal bovine serum at a final concentration of 10%, 100 μg/mL of streptomycin, and 100 U/mL penicillin.
as §1, §2, §3, §4, §5, §6, §7, §8
The assays were performed on an ABI 7900 instrument, according to the manufacturer's instructions. A TaqMan Gene Expression Master Mix (provided in the Cells-to-CTT™, Applied Biosystems, Cat #4399002) was used. […]

Row | Substance | % KD STAT6 (STAT6 mRNA [1]) [%] | % KD STAT6 (STAT6 mRNA [2]) [%]
1 | 30027-DC: STAT6 siNA duplex; sense SEQ ID NO: 118, antisense SEQ ID NO: 119; target AAGACCCGGGCAUCGCUGA, site 1025 (sense AAGACCCGGGCAUCGCUGATT; antisense UCAGCGAUGCCCGGGUCUUUU; sense: DNA at AGT, 2'-fluoro at CU, [invAb] at 5' end, 3' end, backbone not given here; antisense: sugars from the 5' end rrrmfmmfmfffmmmffffmm, backbone not given here) [STAT6 siNA duplex; target …UCGCUGA, site 1025] | −0.8 ± 12.4 | −3.3 ± 3.1
2 | 30024-DC: STAT6 siNA duplex; sense SEQ ID NO: 112, antisense SEQ ID NO: 113; target CGCUGUCUCCGGAGCUACU, site 1850 (sense CGCUGUCUCCGGAGCUACUTT; antisense AGUAGCUCCGGAGACAGCGUU; sense: DNA at AGT, 2'-fluoro at CU, [invAb] at 5' end, 3' end, backbone not given here; antisense: sugars from the 5' end rrrmmffffmmmmmfmmfmmm, backbone not given here) [STAT6 siNA duplex; target CGCUGUCUCCGGAGCUACU, site 1850] | 38.9 ± 11.2 | 19.5 ± 5.6
3 | 30017-DC: STAT6 siNA duplex; sense SEQ ID NO: 98, antisense SEQ ID NO: 99; target GAUGCUUUCUGUUACAACA, site 421 (sense GAUGCUUUCUGUUACAACATT; antisense UGUUGUAACAGAAAGCAUCUU; sense: DNA at AGT, 2'-fluoro at CU, [invAb] at 5' end, 3' end, backbone not given here; antisense: sugars from the 5' end rrrfmfmmfmmmmmmfmffmm, backbone not given here) [STAT6 siNA duplex; target GAUGCUUUCUGUUACAACA, site 421] | −14.9 ± 9.1 | 85.1 ± 2
4 | 29991-DC: STAT6 siNA duplex; sense SEQ ID NO: 46, antisense SEQ ID NO: 47; target CAGCCAAAGCCCUAGUGCU, site 846 (sense CAGCCAAAGCCCUAGUGCUTT; antisense AGCACUAGGGCUUUGGCUGUU; sense: DNA at AGT, 2'-fluoro at CU, [invAb] at 5' end, 3' end, backbone not given here; antisense: sugars from the 5' end rrrmffmmmmffffmmffmmm, backbone not given here) [STAT6 siNA duplex; target …UAGUGCU, site 846] | −2.1 ± 17.7 | −30 ± 9.2
5 | 30020-DC: STAT6 siNA duplex; sense SEQ ID NO: 104, antisense SEQ ID NO: 105; target CUAGCCUUCUCCUCAAUGA, site 1928 (sense CUAGCCUUCUCCUCAAUGATT; antisense UCAUUGAGGAGAAGGCUAGUU; sense: DNA at AGT, 2'-fluoro at CU, [invAb] at 5' end, 3' end, backbone not given here; antisense: sugars from the 5' end r3 f2 m10 f2 m4, backbone not given here) [STAT6 siNA duplex; target CUAGCCUUCUCCUCAAUGA, site 1928] | 58.8 ± 13.6 | 64.2 ± 7.9
6 | 30001-DC: STAT6 siNA duplex; sense SEQ ID NO: 66, antisense SEQ ID NO: 67; target GAAAGCCUGGUGGACAUUU, site 956 (sense GAAAGCCUGGUGGACAUUUTT; antisense AAAUGUCCACCAGGCUUUCUU; sense: DNA at AGT, 2'-fluoro at CU, [invAb] at 5' end, 3' end, backbone not given here; antisense: sugars from the 5' end rrrfmfffmffmmmfffffmm, backbone not given here) [STAT6 siNA duplex; target GAAAGCCUGGUGGACAUUU, site 956] | 48.2 ± 5 | −5.9 ± 6.6

Source: patent US20120035247A1, “RNA Interference Mediated Inhibition of Signal Transducer and Activator of Transcription 6 (STAT6) Gene Expression Using Short Interfering Nucleic Acid (siNA)” (Merck Sharp & Dohme Corp., priority 2009, published 2012)
